From US20050079495A1, “Modified tachykinin receptors” (priority 2000, published 2005)

Experiments:
[1] = tested on: functional G-protein Ca^2+ linked pathway; assay: Fura-2 calcium imaging, UTP challenge of COS-7 cells; format: cell-based, monkey; conditions: UTP 3μM, 1 min
Experimental: Coverslips containing cells were prepared and maintained as described. Cultured cells were washed twice in a Krebs-Hepes extra-cellular medium buffer (EM, composition in mM: NaCl 118, KCl 4.7, MgSO4 1.2, CaCl2 1.2, KH2PO4 1.2, Hepes 10, glucose 11 and BSA 0.1%, (pH 7.2 at 20° C., (Rossant, et al Endocrinology, 140, 1525-1536), and then loaded with Fura-2 (Rossant, et al Endocrinology, 140, 1525-1536) by incubation for 3 h at 20° C. with EM containing Fura-2-AM (2 μM, Molecular Probes). This procedure enables the cells to load with Fura-2-AM, which becomes hydrolysed to the free acid form once inside the intact cells. After loading, coverslips were mounted into imaging chambers and perfused with EM to remove extra-cellular Fura-2-AM and to allow hydrolysis of intracellular Fura-2-AM to occur. Measurements of changes in the free [Ca^2+]i in individual cells were made from the fluorescence ratio (excitations 340 nm/380 nm, emission >510 nm) using a Spectral Wizard monochromator, cooled integrating CCD camera and a dedicated suite of software (Merlin, Life Sciences Resources, Cambridge, UK). Data are expressed as ratio units 340/380.
Genes encoding wild type sense, wild type anti-sense and variant NK-1 receptors described above were transiently transfected into COS-7 (monkey kidney) cell lines.

[2] = tested on: wild type anti-sense transfected COS-7 cells; assay: Fura-2 calcium imaging, COS-7 cells transfected with wild type anti-sense construct (negative control); format: cell-based, monkey; conditions: COS-7 cells expressing wild type anti-sense, substance P 1 nM
Experimental: The resulting cDNA was excised from the parental vector, spliced into a mammalian expression vector, pCMV3.1 (Invitrogen). This cDNA was in an orientation which allowed expression of the hNK-1vR polypeptide. Stock plasmid was prepared by amplification in E. coli and the plasmid DNA subsequently purified using a Qiagen endonuclease free DNA preparation kit, and the fidelity of the construct confirmed by DNA sequencing. The nucleic acid sequence of the cDNA is SEQ ID N^o6 (FIG. 2) and the translated protein sequence is SEQ ID N^o5 (FIG. 1). Similarly control (negative control) constructs were prepared whereby wild type and variant HNK-1R cDNA was spliced into the vector in an opposite configuration to that described above. A further control (positive control) was prepared by ligation of the parental wild type hNK-1R cDNA into the vector in a manner which would allow hNK-1R polypeptide to be expressed. […]
Coverslips containing cells were prepared and maintained as described. […] Measurements of changes in the free [Ca^2+]i in individual cells were made from the fluorescence ratio (excitations 340 nm/380 nm, emission >510 nm) using a Spectral Wizard monochromator, cooled integrating CCD camera and a dedicated suite of software (Merlin, Life Sciences Resources, Cambridge, UK). Data are expressed as ratio units 340/380. […]

Compound	[Ca^2+]i response to UTP challenge [1]	Ca^2+ response to substance P challenge [2]
O=c1ccn([C@@H]2O[C@H](COP(=O)(O)OP(=O)(O)OP(=O)(O)O)[C@@H](O)[C@H]2O)c(=O)[nH]1 [UTP]	caused a [Ca^2+]i response	–
H-Arg-Pro-Lys-Pro-Gln-Gln-Phe-Phe-Gly-Leu-Met-NH2 [substance P]	–	failed to invoke a Ca^2+ response
